# pIC50: −log10 of the molar value.
# Key:
# [1] = molecular target: [Pyruvate dehydrogenase (acetyl-transferring)] kinase isozyme 3, mitochondrial (Homo sapiens, UniProt Q15120)
# Description: Inhibition of human PDHK3 using myelin basic protein as substrate pre-incubated for 20 min followed by addition of [gamma-33P]-ATP measured after 2 hrs by Radiometric Hotspot kinase assay
# [2] = molecular target: [Pyruvate dehydrogenase (acetyl-transferring)] kinase isozyme 4, mitochondrial (Homo sapiens, UniProt Q16654)
# Description: Inhibition of human PDHK4 using myelin basic protein as substrate pre-incubated for 20 min followed by addition of [gamma-33P]-ATP measured after 2 hrs by Radiometric Hotspot kinase assay
# [3] = molecular target: [Pyruvate dehydrogenase (acetyl-transferring)] kinase isozyme 2, mitochondrial (Homo sapiens, UniProt Q15119)
# Description: Inhibition of human PDHK2 using PDHKtide and Mn2+ as substrates pre-incubated for 20 min followed by addition of [gamma-33P]-ATP measured after 2 hrs by Radiometric Hotspot kinase assay
# Chain of [Pyruvate dehydrogenase (acetyl-transferring)] kinase isozyme 3, mitochondrial (Q15120 whole entry): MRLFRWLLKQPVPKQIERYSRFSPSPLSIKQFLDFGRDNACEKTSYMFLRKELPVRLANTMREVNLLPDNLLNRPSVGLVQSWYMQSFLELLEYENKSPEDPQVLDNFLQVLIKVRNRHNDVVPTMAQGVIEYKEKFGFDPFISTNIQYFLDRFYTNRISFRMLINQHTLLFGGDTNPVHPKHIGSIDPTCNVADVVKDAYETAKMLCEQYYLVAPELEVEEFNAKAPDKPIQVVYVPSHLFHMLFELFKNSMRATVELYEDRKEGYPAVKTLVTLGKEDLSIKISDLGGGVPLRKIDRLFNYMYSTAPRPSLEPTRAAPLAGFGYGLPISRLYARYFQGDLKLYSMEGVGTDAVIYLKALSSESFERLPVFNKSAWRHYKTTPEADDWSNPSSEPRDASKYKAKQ
# Chain of [Pyruvate dehydrogenase (acetyl-transferring)] kinase isozyme 4, mitochondrial (Q16654 whole entry): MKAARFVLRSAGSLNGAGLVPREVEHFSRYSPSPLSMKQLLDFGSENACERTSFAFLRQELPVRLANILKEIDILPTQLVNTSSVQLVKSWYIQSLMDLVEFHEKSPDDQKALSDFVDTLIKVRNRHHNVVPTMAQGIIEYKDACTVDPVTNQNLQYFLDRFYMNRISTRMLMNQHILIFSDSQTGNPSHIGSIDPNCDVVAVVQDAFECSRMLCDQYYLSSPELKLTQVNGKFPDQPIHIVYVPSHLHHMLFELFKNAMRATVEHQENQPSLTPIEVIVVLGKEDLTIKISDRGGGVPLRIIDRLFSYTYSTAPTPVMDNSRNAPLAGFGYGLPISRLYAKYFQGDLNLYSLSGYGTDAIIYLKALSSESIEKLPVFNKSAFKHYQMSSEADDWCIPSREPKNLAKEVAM
pIC50 [1],pIC50 [2],pIC50 [3],Compound
< 4.52,4.63,< 4.52,Cc1ccc(Cl)cc1S(=O)(=O)Nc1cc(Br)cc(C(=O)O)c1
< 4.52,< 4.52,< 4.52,CSc1ccc(C(=O)O)cc1NS(=O)(=O)c1cc(Cl)ccc1C
< 4.52,4.52,< 4.52,Cc1ccc(Cl)cc1S(=O)(=O)Nc1cc(C(=O)O)ccc1Br
< 4.52,4.81,< 4.52,Cc1ccc(Cl)cc1S(=O)(=O)Nc1cc(C#N)ccc1Br

# The remaining lines, values behind:
Compound,pIC50 [1],pIC50 [2],pIC50 [3]
O=C(O)c1ccc(Br)c(NS(=O)(=O)c2ccc(Cl)s2)c1,< 4.52,< 4.52,< 4.52
COc1cc(C(=O)O)cc(NS(=O)(=O)c2cc(Cl)ccc2C)c1Cl,< 4.52,< 4.52,< 4.52
O=C(O)C(Cl)Cl [DICHLOROACETIC ACID],< 2.30,3.97,< 2.30
O=C(O)c1ccc(Br)c(NS(=O)(=O)c2cc(Cl)cc(Cl)c2)c1,< 4.52,4.77,< 4.52

# — ChEMBL document CHEMBL6121009, “Identification of a selective pyruvate dehydrogenase kinase 1 (PDHK1) chemical probe by virtual screening” (Eur J Med Chem, 2025)
